The results in this text go back to patent US9827265B1, “Method for attenuating free radical formation resulting from a bodily insult” (MD Scientific, LLC, priority 2012, dated 2017).

Read-outs that look alike come from different tables or passages of the source.

[1] abbreviates: high risk subjects with injection of iodinated contrast in the cardiac arteries, total 1.96 mEq/kg, 40% prior to and 60% during and after the contrast, sodium concentration 154 mEq/L, death primarily from cardiac failure.

`[Cl-].[Na+]` [sodium chloride (saline), sodium chloride]: the incidence of death under setting [1] worked out at 10.1%.

For the compound `O=C([O-])O.[Na+]` [sodium bicarbonate solution, sodium bicarbonate], the incidence of death runs as follows: under setting [1], 3.2%; (subjects with other types of iodinated contrast injection (other non-cardiac arteries), compared between both study cohorts) “same incidence of death in both study cohorts”.
